Measurements from patent US20150018384A1, “TREATMENT FOR HIGH CHOLESTEROL” (FibroGen, Inc., priority 2012, published 2015).
Marks after values point to notes of the source that are not given here.

Assays:
Sprague-Dawley rats = test: Single oral dose lipid panel in rats; type: in vivo, rat; conditions: fasted rats, single oral dose 60 mg/kg, after 24 hours
Experimental: Blood samples were collected at baseline (pre-dose) and approximately 24 hours following dosing to determine levels of cholesterol, HDL, LDL and the LDL/HDL ratio.

[1] = test system: subjects with end stage renal disease (ESRD); test: ESRD subjects switched from epoetin alfa to Compound A or continued on epoetin alfa; type: in vivo, human
PHD3 = PHD3 (Homo sapiens, UniProt Q9H6Z9); test: HIF prolyl hydroxylase enzyme assay, PHD3; type: biochemical
Excerpt: Suitable assay methods are well known in the art.

[2] = test system: non-dialysis chronic kidney disease (CKD) patients with anemia; test: Study 1: Phase 2 study of compound A in non-dialysis CKD patients with anemia; type: in vivo, human
Experimental: The primary objectives of this study were to evaluate the efficacy and safety of the compound in the correction of anemia (i.e. increasing hemoglobin levels) in non-dialysis CKD patients. The study included six dosing cohorts of approximately 24 subjects each. […] Cohort A and cohort B both received a weight-adjusted dose of approximately 1 mg/kg, three times a week for 16 weeks; the dosing in cohort B was reduced to twice a week once anemia was corrected. Cohort C and cohort D received a fixed dose of 50 mg or 100 mg, respectively, three times a week, for 24 weeks. Cohort E received a weight-adjusted dose of approximately 1 mg/kg twice a week, reduced to once a week once anemia was corrected. Cohort F received a fixed dose of 70 mg, three times a week.
Total cholesterol and lipid panels were measured by standard procedures.
Total cholesterol was measured from all subjects in Study 1 or Study 2 as part of the chemistry panel at prespecified time points. […] Total cholesterol decreased initially with treatment, reached a plateau where it remained during treatment, and then returned to baseline after treatment ends.
Frozen serum samples, collected from subjects in Study 1 or Study 2, were selected for the lipid panel analysis based on the following criteria: 1) with matched baseline (D1W1) and; 2) at least one other time point. The complete lipid panel includes: total cholesterol (TC), HDL, LDL-measured, Triglycerides and VLDL (Calculated). Ratio of HDL/LDL or LDL/HDL were analyzed.
A total of n=9 subjects samples were selected and assayed for the complete lipid panel as described above. Subjects on this study protocol were not required to fast nor have any diet restrictions.

[3] = test system: Cholesterol Biosynthesis Genes in the Mouse Liver; test: Microarray expression of cholesterol biosynthesis genes in mouse liver; type: in vivo; conditions: 90 mg/kg oral
Method in brief: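 Mouse livers taken 4 h or 8 h post-treatment; RNA from paired animals pooled and hybridized to mouse 430A 2.0 arrays, GC-RMA processed, outlier arrays removed by PCA. Values are fold-change versus timepoint-matched vehicle controls from the same study; below 1.0 means reduced liver RNA.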

[4] = baseline, Compound A 3 cohorts n=74, Epoetin alfa n=22
[5] = six subjects with identical time points, FIG. 7

Sequence of PHD3 (Q9H6Z9 whole entry): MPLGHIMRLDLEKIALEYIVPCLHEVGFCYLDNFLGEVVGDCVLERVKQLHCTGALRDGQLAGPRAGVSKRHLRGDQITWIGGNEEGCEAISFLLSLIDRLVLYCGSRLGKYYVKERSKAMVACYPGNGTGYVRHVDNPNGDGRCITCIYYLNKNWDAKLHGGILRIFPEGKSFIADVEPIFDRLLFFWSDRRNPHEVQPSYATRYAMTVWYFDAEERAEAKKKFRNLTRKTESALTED

Cc1nc(C(=O)NCC(=O)O)c(O)c2ccc(Oc3ccccc3)cc12 [Compound A, [(4-Hydroxy-1-methyl-7-phenoxy-isoquinoline-3-carbonyl)-amino]-acetic acid]
HDL decrease from baseline (Sprague-Dawley rats): 21 ± 7 mg/dL
LDL decrease from baseline (Sprague-Dawley rats): 11 ± 3 mg/dL
total cholesterol decrease from baseline (Sprague-Dawley rats): 26 ± 9 mg/dL
LDL cholesterol change ([1]; Mean (±SD), six weeks, Compound A orally three times a week (n=74) or continued epoetin alfa (n=22)): −25 (22)** mg/dL
Mean change in LDL-C, decrease ([1]; all cohorts, six weeks): 25 mg/dL
Mean BL LDL Cholesterol [1, 4]: 101.71 mg/dL
Mean BL Total Cholesterol [1, 4]: 171.11 mg/dL
mean total cholesterol over the course of treatment ([1]; both groups stratified by BL total cholesterol ≦200 or >200 mg/dL, FIG. 16): reduction
mean LDL-C over the course of treatment ([1]; both groups stratified by BL total cholesterol ≦200 or >200 mg/dL, FIG. 17): reduction
HDL-C ([1]; six weeks): showed a decrease
IC50 (PHD3): 200 to 2000 nM
total cholesterol by baseline total cholesterol ≦200 or >200 mg/dL ([2]; Study 1, FIG. 5): total cholesterol is reduced in each group
total cholesterol over time ([2]; all subjects from all cohorts (n=144), during study treatment, FIG. 1): significant decrease in total cholesterol
LDL, lipid panel [2, 5]: reduce over the course of treatment
total cholesterol, lipid panel [2, 5]: reduce over the course of treatment
3-hydroxy-3-methylglutaryl-Coenzyme A reductase (Hmgcr) RNA expression ([3]; 4 h): 0.45 fold-change
3-hydroxy-3-methylglutaryl-Coenzyme A synthase 1 (Hmgcs1) RNA expression ([3]; 4 h): 0.94 fold-change
7-dehydrocholesterol reductase (Dhcr7) RNA expression ([3]; 4 h): 1.03 fold-change
NAD(P) dependent steroid dehydrogenase-like (Nsdhl) RNA expression ([3]; 4 h): 0.86 fold-change
acetyl-Coenzyme A acetyltransferase 2 (Acat2) RNA expression ([3]; 4 h): 1.24 fold-change
cytochrome P450, family 51 (Cyp51) RNA expression ([3]; 4 h): 0.69 fold-change
farnesyl diphosphate farnesyl transferase 1 (Fdft1) RNA expression ([3]; 4 h): 0.68 fold-change
farnesyl diphosphate synthetase (Fdps) RNA expression ([3]; 4 h): 0.87 fold-change
isopentenyl-diphosphate delta isomerase (Idi1) RNA expression ([3]; 4 h): 0.73 fold-change
lanosterol synthase (Lss) RNA expression ([3]; 4 h): 0.74 fold-change
mevalonate (diphospho) decarboxylase (Mvd) RNA expression ([3]; 4 h): 0.68 fold-change
mevalonate kinase (Mvk) RNA expression ([3]; 4 h): 1.00 fold-change
phosphomevalonate kinase (Pmvk) RNA expression ([3]; 4 h): 1.27 fold-change
squalene epoxidase (Sqle) RNA expression ([3]; 4 h): 0.61 fold-change
sterol-C4-methyl oxidase-like (Sc4mol) RNA expression ([3]; 4 h): 0.63 fold-change
sterol-C5-desaturase (fungal ERG3, delta-5-desaturase) homolog (S. cerevisae) (Sc5d) RNA expression ([3]; 4 h): 1.09 fold-change
3-hydroxy-3-methylglutaryl-Coenzyme A reductase (Hmgcr) RNA expression ([3]; 8 h): 0.43 fold-change
3-hydroxy-3-methylglutaryl-Coenzyme A synthase 1 (Hmgcs1) RNA expression ([3]; 8 h): 0.38 fold-change
7-dehydrocholesterol reductase (Dhcr7) RNA expression ([3]; 8 h): 0.61 fold-change
NAD(P) dependent steroid dehydrogenase-like (Nsdhl) RNA expression ([3]; 8 h): 0.62 fold-change
acetyl-Coenzyme A acetyltransferase 2 (Acat2) RNA expression ([3]; 8 h): 0.50 fold-change
cytochrome P450, family 51 (Cyp51) RNA expression ([3]; 8 h): 0.45 fold-change
farnesyl diphosphate farnesyl transferase 1 (Fdft1) RNA expression ([3]; 8 h): 0.43 fold-change
farnesyl diphosphate synthetase (Fdps) RNA expression ([3]; 8 h): 0.36 fold-change
isopentenyl-diphosphate delta isomerase (Idi1) RNA expression ([3]; 8 h): 0.51 fold-change
lanosterol synthase (Lss) RNA expression ([3]; 8 h): 0.44 fold-change
mevalonate (diphospho) decarboxylase (Mvd) RNA expression ([3]; 8 h): 0.37 fold-change
mevalonate kinase (Mvk) RNA expression ([3]; 8 h): 0.53 fold-change
phosphomevalonate kinase (Pmvk) RNA expression ([3]; 8 h): 0.63 fold-change
squalene epoxidase (Sqle) RNA expression ([3]; 8 h): 0.43 fold-change
sterol-C4-methyl oxidase-like (Sc4mol) RNA expression ([3]; 8 h): 0.46 fold-change
sterol-C5-desaturase (fungal ERG3, delta-5-desaturase) homolog (S. cerevisae) (Sc5d) RNA expression ([3]; 8 h): 0.38 fold-change
